Results on three compounds are retold here after ChEMBL document CHEMBL1255560, “2-, 3-, and 4-(1-Oxo-1H-2,3-dihydroisoindol-2-yl)benzoic acids and their corresponding organotin carboxylates: synthesis, characterization, fluorescent, and biological activities” (2010).

Common to all, as to assay type: functional
In assay [1] the test system is Escherichia coli. Description: Antibacterial activity against Escherichia coli by double dilution technique.
The test system of assay [2] is Staphylococcus aureus. The assay can be described thus: Antibacterial activity against Staphylococcus aureus by double dilution technique.
The test system of assay [3] is Pseudomonas aeruginosa. Description: Antibacterial activity against Pseudomonas aeruginosa by double dilution technique.
Assay [4] relates to Candida albicans. The assay can be described thus: Antifungal activity against Candida albicans by double dilution technique.

In brackets after ≈: the same amount, converted by molar mass.

By MIC is commonly meant the lowest concentration that inhibits growth of the organism. Read a low MIC as inhibition by little substance. With `O=C(O)c1cccc(N2Cc3ccccc3C2=O)c1`, the MIC in assay [1] stood at 0.625 mg/L (≈ 2.47 µM); in assay [2] it was 1.25 mg/L (≈ 4.94 µM); in assay [3] it was 0.625 mg/L (≈ 2.47 µM); in assay [4] it was 0.625 mg/L (≈ 2.47 µM).

In the case of `O=C(O)c1ccccc1N1Cc2ccccc2C1=O`, the MIC in assay [1] worked out at 2.5 mg/L (≈ 9.87 µM); in assay [2], 2.5 mg/L (≈ 9.87 µM); in assay [3] it was 1.25 mg/L (≈ 4.94 µM); in assay [4], 1.25 mg/L (≈ 4.94 µM).

As for `O=C(O)c1ccc(N2Cc3ccccc3C2=O)cc1`, the MIC in assay [1] was determined as 1.25 mg/L (≈ 4.94 µM); in assay [2] it was 1.25 mg/L (≈ 4.94 µM); in assay [3], 0.625 mg/L (≈ 2.47 µM); in assay [4], 1.25 mg/L (≈ 4.94 µM).
